According to patent US20240207292A1, “BORONIC ACID COMPOUNDS, COMPOSITIONS AND METHODS” (Trustees of Tufts College, priority 2021, published 2024):

Key:
[1] = Stability of 6555 with sulfur-containing and other stabilizers, 50 mM AAPH at 80° C. for 30 mins (Tables 7-9); type: physicochemical
Text: The effect of specified sulfur-containing compounds and other stabilizer compounds (including non-sulfur-containing stabilizer compounds) and mixtures of sulfur-containing compounds and non-sulfur-containing stabilizer compounds with the boronic acid compound 6555 (structure shown above) at various pH values.

[2] = Effect of N-acetyl methionine (NAM) on stability of 6522/6555 with 50 mM AAPH at 80° C. for 30 mins; type: physicochemical; conditions: pH 5.0, 2 mg/mL
Experimental: Effect of N-acetyl methionine (NAM) on the stability of the compound 6522 (6522 compound structure immediately below) 80° C. in the presence of AAPH 2,2′-azobis-(2-amidopropane)hydrochloride, a free radical generator.
• Concentration:2 mg/mL • Reaction condition: add 50 mM AAPH, at 80° C. for 30 mins

[3] = Degradation in aqueous solution of pH about 3 during HPLC purification and lyophilization; conditions: during HPLC purification and subsequent lyophilization
[4] = molecular target: recombinant human prolyl oligopeptidase (PREP) (Homo sapiens (Human), UniProt P48147); test: In vitro assay prolyl oligopeptidase IC50 (Example 21); type: biochemical
Chain of recombinant human prolyl oligopeptidase (PREP) (P48147 whole entry): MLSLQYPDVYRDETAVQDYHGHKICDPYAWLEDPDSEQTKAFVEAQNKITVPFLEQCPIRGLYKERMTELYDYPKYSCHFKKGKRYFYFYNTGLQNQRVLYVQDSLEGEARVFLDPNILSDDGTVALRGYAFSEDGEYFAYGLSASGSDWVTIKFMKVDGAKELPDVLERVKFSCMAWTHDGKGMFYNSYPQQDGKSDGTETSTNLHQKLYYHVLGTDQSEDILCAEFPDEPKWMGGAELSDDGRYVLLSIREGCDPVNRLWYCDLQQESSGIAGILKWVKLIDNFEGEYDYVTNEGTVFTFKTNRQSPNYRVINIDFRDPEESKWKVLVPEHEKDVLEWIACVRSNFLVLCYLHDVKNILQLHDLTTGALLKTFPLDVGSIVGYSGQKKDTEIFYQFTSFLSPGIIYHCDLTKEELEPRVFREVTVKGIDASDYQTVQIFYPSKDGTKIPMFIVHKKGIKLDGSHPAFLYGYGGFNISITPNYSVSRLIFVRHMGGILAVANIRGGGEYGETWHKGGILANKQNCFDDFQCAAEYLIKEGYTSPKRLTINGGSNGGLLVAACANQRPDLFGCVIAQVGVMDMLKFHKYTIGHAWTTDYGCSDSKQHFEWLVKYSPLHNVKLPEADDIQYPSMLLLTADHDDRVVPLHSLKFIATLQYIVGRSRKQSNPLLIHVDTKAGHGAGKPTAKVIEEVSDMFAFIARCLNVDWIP

C[C@@H](NC(=O)c1ccc(CNC(=O)CN2CCN(CC(=O)O)CCN(CC(=O)O)CCN(CC(=O)O)CC2)cc1)C(=O)N1CCC[C@H]1B(O)O [compound 6555, DOTA-aminomethyl-Bz-D-Ala-boroPro]
6555 Remain (%) ([1]; ascorbate (2.5 mM) +, gentisate (1 mM) +, Sodium sulfite 2.5 mM, pH 4.5, SID 90616, AAPH 80° C. 30 mins): 67.9%
6555 Remain (%) ([1]; ascorbate (2.5 mM) +, gentisate (1 mM) +, Sodium sulfite 5.0 mM, pH 4.6, SID 90617, AAPH 80° C. 30 mins): 90.3%
6555 Remain (%) ([1]; ascorbate (2.5 mM) +, gentisate (1 mM) +, Sodium sulfite 10.0 mM, pH 4.8, SID 90613, AAPH 80° C. 30 mins): 93.8%
6555 Remain (%) ([1]; ascorbate (2.5 mM) +, gentisate (1 mM) +, Sodium sulfite 25.0 mM, pH 5.1, SID 90517, AAPH 80° C. 30 mins): 94.1%
6555 Remain (%) ([1]; ascorbate (2.5 mM) +, gentisate (1 mM) +, Stabilizer (1 mM) NAM, pH 4.6, SID 90629, AAPH 80° C. 30 mins): 30.8%
6555 Remain (%) ([1]; ascorbate (2.5 mM) +, gentisate (1 mM) +, Stabilizer (1 mM) Sodium hydrosulfite, pH 4.5, SID 90629, AAPH 80° C. 30 mins): 47.4%
6555 Remain (%) ([1]; ascorbate (2.5 mM) +, gentisate (1 mM) +, Stabilizer (1 mM) Sodium metabisulfite, pH 4.5, SID 90628, AAPH 80° C. 30 mins): 71.1%
6555 Remain (%) ([1]; ascorbate (2.5 mM) +, gentisate (1 mM) +, Stabilizer (2.5 mM) Acetone sodium bisulfite, pH 4.6, SID 90523, AAPH 80° C. 30 mins): 94.0%
6555 Remain (%) ([1]; ascorbate (2.5 mM) +, gentisate (1 mM) +, Stabilizer (2.5 mM) Acetone sodium bisulfite, pH 4.6, SID 90621, second listing, AAPH 80° C. 30 mins): 73.1%
6555 Remain (%) ([1]; ascorbate (2.5 mM) +, gentisate (1 mM) +, Stabilizer (2.5 mM) D-mannitol, pH 4.5, SID 90641, AAPH 80° C. 30 mins): 15.5%
6555 Remain (%) ([1]; ascorbate (2.5 mM) +, gentisate (1 mM) +, Stabilizer (2.5 mM) MSM(dimethyl sulfone), pH 4.5, SID 90598, AAPH 80° C. 30 mins): 8.2%
6555 Remain (%) ([1]; ascorbate (2.5 mM) +, gentisate (1 mM) +, Stabilizer (2.5 mM) N-Acetyl-L-phenylalanine, pH 4.0, SID 90610, AAPH 80° C. 30 mins): 20.1%
6555 Remain (%) ([1]; ascorbate (2.5 mM) +, gentisate (1 mM) +, Stabilizer (2.5 mM) N-Acetyl-L-tyrosine, pH 4.0, SID 90589, AAPH 80° C. 30 mins): 13.6%
6555 Remain (%) ([1]; ascorbate (2.5 mM) +, gentisate (1 mM) +, Stabilizer (2.5 mM) NAC, pH 4.1, SID 90582, AAPH 80° C. 30 mins): 31.4%
6555 Remain (%) ([1]; ascorbate (2.5 mM) +, gentisate (1 mM) +, Stabilizer (2.5 mM) NAM, pH 4.0, SID 90543, AAPH 80° C. 30 mins): 90.8%
6555 Remain (%) ([1]; ascorbate (2.5 mM) +, gentisate (1 mM) +, Stabilizer (2.5 mM) NAM, pH 4.5, SID 90623, second listing, AAPH 80° C. 30 mins): 53.3%
6555 Remain (%) ([1]; ascorbate (2.5 mM) +, gentisate (1 mM) +, Stabilizer (2.5 mM) Potassium metabisulfite, pH 4.4, SID 90622, second listing, AAPH 80° C. 30 mins): 93.7%
6555 Remain (%) ([1]; ascorbate (2.5 mM) +, gentisate (1 mM) +, Stabilizer (2.5 mM) Potassium metabisulfite, pH 4.5, SID 90526, AAPH 80° C. 30 mins): 94.1%
6555 Remain (%) ([1]; ascorbate (2.5 mM) +, gentisate (1 mM) +, Stabilizer (2.5 mM) Sodium L-Glutamate monohydrate, pH 4.7, SID 90604, AAPH 80° C. 30 mins): 8.2%
6555 Remain (%) ([1]; ascorbate (2.5 mM) +, gentisate (1 mM) +, Stabilizer (2.5 mM) Sodium formaldehydesulfoxylate dihydrate, pH 4.4, SID 90527, AAPH 80° C. 30 mins): 91.7%
6555 Remain (%) ([1]; ascorbate (2.5 mM) +, gentisate (1 mM) +, Stabilizer (2.5 mM) Sodium formaldehydesulfoxylate dihydrate, pH 4.5, SID 90620, second listing, AAPH 80° C. 30 mins): 58.0%
6555 Remain (%) ([1]; ascorbate (2.5 mM) +, gentisate (1 mM) +, Stabilizer (2.5 mM) Sodium hydrosulfite, pH 4.3, SID 90539, AAPH 80° C. 30 mins): 94.1%
6555 Remain (%) ([1]; ascorbate (2.5 mM) +, gentisate (1 mM) +, Stabilizer (2.5 mM) Sodium hydrosulfite, pH 4.4, SID 90537, second listing, AAPH 80° C. 30 mins): 91.7%
6555 Remain (%) ([1]; ascorbate (2.5 mM) +, gentisate (1 mM) +, Stabilizer (2.5 mM) Sodium metabisulfite, pH 4.4, SID 90515, AAPH 80° C. 30 mins): 93.8%
6555 Remain (%) ([1]; ascorbate (2.5 mM) +, gentisate (1 mM) +, Stabilizer (2.5 mM) Sodium metabisulfite, pH 4.5, SID 90619, second listing, AAPH 80° C. 30 mins): 93.4%
6555 Remain (%) ([1]; ascorbate (2.5 mM) +, gentisate (1 mM) +, Stabilizer (2.5 mM) Sodium sulfite, pH 4.5, SID 90616, second listing, AAPH 80° C. 30 mins): 67.9%
6555 Remain (%) ([1]; ascorbate (2.5 mM) +, gentisate (1 mM) +, Stabilizer (2.5 mM) Thiourea, pH 4.5, SID 90607, AAPH 80° C. 30 mins): 84.1%
6555 Remain (%) ([1]; ascorbate (2.5 mM) +, gentisate (1 mM) +, Stabilizer none, pH 5.1, SID 90525, AAPH 80° C. 30 mins): 16.7%
6555 Remain (%) ([1]; ascorbate none, gentisate none, Stabilizer (2.5 mM) NAM, pH 4.0, SID 90640, AAPH 80° C. 30 mins): 85.9%
6555 Remain (%) ([1]; ascorbate none, gentisate none, Stabilizer none, pH 4.6, SID 90646, AAPH 80° C. 30 mins): 55.8%
6555 Remain (%) ([1]; mM: ascorbate 0, gentisate 0, NAM 5, metabisulfite 5, hydrosulfite 0, pH 4.3, SID 90664, 50 mM AAPH 80° C. 30 mins): 88.8%
6555 Remain (%) ([1]; mM: ascorbate 2.5, gentisate 1, NAM 2.5, metabisulfite 2.5, hydrosulfite 0, pH 4.5, SID 90637, 50 mM AAPH 80° C. 30 mins): 94.8%
6555 Remain (%) ([1]; mM: ascorbate 2.5, gentisate 1, NAM 10, metabisulfite 2.5, hydrosulfite 0, pH 4.0, SID 90638, 50 mM AAPH 80° C. 30 mins): 93.2%
6555 Remain (%) ([1]; mM: ascorbate 2.5, gentisate 1, NAM 25, metabisulfite 2.5, hydrosulfite 0, pH 4.0, SID 90631, 50 mM AAPH 80° C. 30 mins): 92.2%
6555 Remain (%) ([1]; mM: ascorbate 5, gentisate 2, NAM 0, metabisulfite 5, hydrosulfite 0, pH 4.5, SID 90643, 50 mM AAPH 80° C. 30 mins): 95.6%
6555 Remain (%) ([1]; mM: ascorbate 5, gentisate 2, NAM 0, metabisulfite 5, hydrosulfite 5, pH 4.4, SID 90686, 50 mM AAPH 80° C. 30 mins): 95.3%
6555 Remain (%) ([1]; mM: ascorbate 5, gentisate 2, NAM 5, metabisulfite 0, hydrosulfite 0, pH 4.5, SID 90642, 50 mM AAPH 80° C. 30 mins): 66.5%
6555 Remain (%) ([1]; mM: ascorbate 5, gentisate 2, NAM 5, metabisulfite 0, hydrosulfite 5, pH 4.5, SID 90701, 50 mM AAPH 80° C. 30 mins): 95.7%
6555 Remain (%) ([1]; mM: ascorbate 5, gentisate 2, NAM 5, metabisulfite 5, hydrosulfite 0, pH 4.5, SID 90639, 50 mM AAPH 80° C. 30 mins): 95.8%
6555 Remain (%) ([1]; mM: first column (ascorbate) 2.5, gentisate 1, NAM 0, metabisulfite 2.5, hydrosulfite 0, pH 4.5, SID 90619, 50 mM AAPH 80° C. 30 mins): 93.4%
6555 Remain (%) ([2]; NAM 0 mM): 64.5%
6555 Remain (%) ([2]; NAM 10 mM): 81.7%
6555 Remain (%) ([2]; NAM 40 mM): 82.9%
6555 Remain (%) ([2]; NAM 80 mM): 85.0%
6555 Remain (%) ([2]; NAM 100 mM): 85.6%
6555 Remain (%) ([2]; NAM 200 mM): 87.3%
6555 Remain (%) ([2]; NAM 400 mM): 90.2%
degradation in aqueous solution [3]: did not observe any sign of degradation
IC50 [4]: 870 nM
